Data published in US20260234185A1, “ANTI-AGING COMPOSITION COMPRISING PEPTIDE COMPLEX AS ACTIVE INGREDIENT” (priority 2023, published 2026).
Where no end group is shown, it is not given here.

What was measured:
[1] = test system: AMP-activated protein kinase (AMPK) gene; experiment: RT-PCR of AMPK gene expression in palmitate-treated adipocytes; type: cell-based; conditions: 3T3-L1 adipocytes, 25 μM palmitate 30 minutes; 0.2, 2, 20 μg/mL; 24 hours; RT-PCR vs palmitate control (PA) (FIGS. 4a, 4b)
Protocol: An experiment was performed to determine whether the peptide complex prepared in Preparation Example 1 increases the gene expression of longevity-related genes, FGF21, SIRT1, AMPK, and FOXO3A, in adipocytes in a state of insulin metabolic disorder induced by palmitate treatment.
When 3T3-L1 preadipocytes reached 80% confluence, they were seeded at 5×10^3 cells/well in a 96-well plate and used for the experiment. Two days after reaching confluence, the medium was replaced with differentiation-inducing medium to induce the differentiation into adipocytes, and two days after the induction, the medium was cultured for 2 days in a medium containing 10% FBS and 10 μg/mL insulin, and then the medium was replaced with 10% FBS every 2 days until their differentiation into adipocytes. After differentiation was complete, the medium was replaced with glucose-free medium, cultured for 16 hours, and then starvation was induced by culturing for 40 minutes in 100 μL KPPH buffer containing 2% BSA. After treating with 25 μM palmitate for 30 minutes, the peptide complexes were treated at concentrations of 0.2 μg/mL, 2 μg/mL, and 20 μg/mL, cultured for 24 hours, and RNA was extracted after 24 hours and RT-PCR was performed. […] Subsequently, the mRNA expression pattern was determined by agarose gel electrophoresis.

[2] = test system: AMPK; experiment: Western blot of AMPK phosphorylation in myocytes; type: cell-based, mouse; conditions: differentiated C2C12 myocytes; 0.2, 2, 20 μg/mL; 24 hours; Western blot (FIGS. 6a, 6b)
Protocol: An experiment was performed to determine whether the peptide complex increases the phosphorylation of AMPK and the expression of SIRT1 and FGF21 proteins in myocytes.
C2C12 cells, mouse-derived myoblasts, were cultured in DMEM medium containing 1% P/S and 2% BCS. When the cell confluency reached 70-80%, the cells were seeded in a 6-well culture plate. When the cell confluency in the 6-well culture plate reached 100%, the medium was replaced with differentiation medium (1% P/S, 2% horse serum), and thereafter, the differentiation medium (1% P/S, 2% horse serum) was replaced once every two days. Five days after the first replacement, the peptide complex was treated at concentrations of 0.2 μg/mL, 2 μg/mL, and 20 μg/mL and cultured for 24 hours. The group untreated with the peptide complex was used as the control. After dissolving by adding dissolution buffer thereto, the proteins obtained were centrifuged at 4° C. and 12,000 rpm for 30 minutes, and quantified using a BCA kit. The proteins were subjected to sodium dodecyl sulfate-polyacrylamide gel electrophoresis (SDS-PAGE) and then electrotransferred onto a membrane. The membrane with the proteins attached was blocked by treating it with 5% skim milk, and then the primary antibody was reacted overnight at 4° C. […]

[3] = test system: FGF21 protein; experiment: ELISA of FGF21 protein expression in adipocytes; type: cell-based; conditions: differentiated 3T3-L1 adipocytes, 0.2, 2, 20 μg/mL, ELISA (FIG. 2)
Protocol: An experiment was performed using adipocytes to determine whether the peptide complex prepared in Preparation Example 1 increases the expression level of FGF21 protein, a longevity-related protein, in adipocytes.
When 3T3-L1 preadipocytes reached 80% confluence, they were seeded at 5×10^3 cells/well in a 96-well plate and used for the experiment. Two days after reaching confluence, the medium was replaced with a differentiation-inducing medium to induce the differentiation into adipocytes, and two days after the induction, the cells were cultured for 2 days in a medium containing 10% FBS and 10 μg/mL insulin, and then the medium was replaced with 10% FBS every 2 days until differentiation into adipocytes. Once the differentiation was complete, the medium was replaced with a serum-free medium and cultured for 4 hours to induce starvation. The peptide complexes were treated at concentrations of 0.2 μg/mL, 2 μg/mL, and 20 μg/mL, and cultured for 48 and 72 hours, respectively. The complexes were dissolved by adding dissolution buffer thereto, and the proteins obtained by centrifugation at 4° C. and 12,000 rpm for 10 minutes were analyzed using a Quantikine ELISA Kit, and the absorbance was measured at 450 nm using a Microplate Reader.

peptide complex: prepared by mixing equal amounts of the peptide of SEQ ID NO: 1 (LKTRN) and the peptide of SEQ ID NO: 2 (KGSATGWMA) (also: mixture of two peptides)
increased: expression of AMP-activated protein kinase (AMPK) gene [1] | phosphorylation of AMPK [2] | expression level of FGF21 protein ([3]; 48 hours) | expression level of FGF21 protein ([3]; 72 hours)
